PubChem BioAssay AID248 (DTP/NCI, 2004)
Inconclusive results and toxic doses are left out. Cut-off read from the data, not from the text of the source: active = T/C of 150% or more; inactive = T/C below 125%.

System: L1210 leukemia ip in BDF1 mice, survival T/C
Experiment: NCI In Vivo Anticancer Drug Screen. Data for tumor model L1210 Leukemia (intraperitoneal) in B6D2F1 (BDF1) mice
Conditions: endpoint: mean survival time, higher = longer survival
Summary of the method: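 Mice bearing the transplanted tumor received compound or vehicle. Survival of the treated group was divided by that of the vehicle-treated control group to give the ratio.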

[1] = dose: 100.0 mg/kg/injection, schedule: Q04DX003 (ip), vehicle: saline with Tween-80
[2] = dose: 100.0 mg/kg/injection, schedule: Q01DX001 (ip), vehicle: carboxymethylcellulose (CMC)
[3] = dose: 200.0 mg/kg/injection, schedule: Q01DX001 (ip), vehicle: carboxymethylcellulose (CMC)
[4] = dose: 400.0 mg/kg/injection, schedule: Q01DX001 (ip), vehicle: carboxymethylcellulose (CMC)
[5] = dose: 100.0 mg/kg/injection, schedule: Q04DX003 (ip), vehicle: Klucel (hydroxypropylcellulose) (HPC)
[6] = dose: 200.0 mg/kg/injection, schedule: Q04DX003 (ip), vehicle: Klucel (hydroxypropylcellulose) (HPC)
[7] = dose: 400.0 mg/kg/injection, schedule: Q04DX003 (ip), vehicle: Klucel (hydroxypropylcellulose) (HPC)
[8] = dose: 100.0 mg/kg/injection, schedule: Q01DX001 (ip), vehicle: saline
[9] = dose: 200.0 mg/kg/injection, schedule: Q01DX001 (ip), vehicle: saline
[10] = dose: 400.0 mg/kg/injection, schedule: Q01DX001 (ip), vehicle: saline
[11] = dose: 100.0 mg/kg/injection, schedule: Q01DX001 (ip), vehicle: Klucel (hydroxypropylcellulose) (HPC)
[12] = dose: 200.0 mg/kg/injection, schedule: Q01DX001 (ip), vehicle: Klucel (hydroxypropylcellulose) (HPC)
[13] = dose: 100.0 mg/kg/injection, schedule: Q01DX009 (ip), vehicle: Klucel (hydroxypropylcellulose) (HPC)
[14] = dose: 200.0 mg/kg/injection, schedule: Q01DX009 (ip), vehicle: Klucel (hydroxypropylcellulose) (HPC)

Measured: T/C

NC(=S)NN=C1CCCCC1
inactive: dose: 5.0 mg/kg/injection, schedule: Q01DX001 (ip), vehicle: carboxymethylcellulose (CMC) 96 % of control | dose: 10.0 mg/kg/injection, schedule: Q01DX001 (ip), vehicle: carboxymethylcellulose (CMC) 96 % of control | dose: 20.0 mg/kg/injection, schedule: Q01DX001 (ip), vehicle: carboxymethylcellulose (CMC) 107 % of control

CCCOP(=O)(OCCC)C(OC(=O)C(C)(C)SC(=S)CCC)=C(C)C
inactive: [1] 97 % of control | dose: 200.0 mg/kg/injection, schedule: Q04DX003 (ip), vehicle: saline with Tween-80 100 % of control | dose: 400.0 mg/kg/injection, schedule: Q04DX003 (ip), vehicle: saline with Tween-80 94 % of control

CCCCCCc1cc(N=Nc2ccc(S(=O)(=O)Nc3cc(C)nc(C)n3)cc2)c(O)cc1O
inactive: [2] 101 % of control | [3] 95 % of control | [4] 95 % of control

O=Cc1occ(-c2ccccc2)c1-c1ccccc1
inactive: [5] 94 % of control | [6] 97 % of control | [7] 98 % of control

O=C(Nc1ccc(C(=O)Nc2ccc(C3=NCCN3)cc2)cc1)Nc1ccc(C2=NCCN2)cc1
active: dose: 30.0 mg/kg/injection, schedule: Q01DX Z (ip), vehicle: carboxymethylcellulose (CMC) 166 % of control | dose: 60.0 mg/kg/injection, schedule: Q01DX Z (ip), vehicle: carboxymethylcellulose (CMC) 218 % of control | dose: 120.0 mg/kg/injection, schedule: Q01DX Z (ip), vehicle: carboxymethylcellulose (CMC) 192 % of control | dose: 240.0 mg/kg/injection, schedule: Q01DX Z (sc), vehicle: saline 154 % of control
inactive: dose: 1.88 mg/kg/injection, schedule: Q01DX Z (ip), vehicle: saline 117 % of control | dose: 3.75 mg/kg/injection, schedule: Q01DX Z (ip), vehicle: saline 117 % of control | dose: 7.5 mg/kg/injection, schedule: Q01DX Z (ip), vehicle: saline 123 % of control | dose: 30.0 mg/kg/injection, schedule: Q01DX Z (sc), vehicle: saline 97 % of control | dose: 44.0 mg/kg/injection, schedule: Q01DX007 (oral), vehicle: carboxymethylcellulose (CMC) 103 % of control | dose: 60.0 mg/kg/injection, schedule: Q01DX Z (sc), vehicle: saline 109 % of control | dose: 62.5 mg/kg/injection, schedule: Q01DX010 (oral), vehicle: saline 109 % of control | dose: 88.0 mg/kg/injection, schedule: Q01DX007 (oral), vehicle: carboxymethylcellulose (CMC) 101 % of control | dose: 120.0 mg/kg/injection, schedule: Q01DX Z (sc), vehicle: saline 120 % of control | dose: 125.0 mg/kg/injection, schedule: Q01DX010 (oral), vehicle: saline 108 % of control | dose: 175.0 mg/kg/injection, schedule: Q01DX007 (oral), vehicle: carboxymethylcellulose (CMC) 101 % of control | dose: 250.0 mg/kg/injection, schedule: Q01DX010 (oral), vehicle: saline 106 % of control | dose: 350.0 mg/kg/injection, schedule: Q01DX007 (oral), vehicle: carboxymethylcellulose (CMC) 100 % of control | dose: 500.0 mg/kg/injection, schedule: Q01DX010 (oral), vehicle: saline 106 % of control | dose: 700.0 mg/kg/injection, schedule: Q01DX007 (oral), vehicle: carboxymethylcellulose (CMC) 100 % of control

Cc1cccc(NC(=O)Nc2ccc(Cl)cc2)c1C
inactive: dose: 100.0 mg/kg/injection, schedule: Q01DX009 (ip), vehicle: gum acacia 100 % of control | dose: 100.0 mg/kg/injection, schedule: Q04DX003 (ip), vehicle: gum acacia 95 % of control | dose: 200.0 mg/kg/injection, schedule: Q01DX009 (ip), vehicle: gum acacia 100 % of control | dose: 200.0 mg/kg/injection, schedule: Q04DX003 (ip), vehicle: gum acacia 95 % of control | dose: 400.0 mg/kg/injection, schedule: Q01DX009 (ip), vehicle: gum acacia 92 % of control | dose: 400.0 mg/kg/injection, schedule: Q04DX003 (ip), vehicle: gum acacia 97 % of control

CC(=O)OCCC#N
inactive: dose: 50.0 mg/kg/injection, schedule: Q01DX001 (ip), vehicle: carboxymethylcellulose (CMC) 95 % of control | [2] 95 % of control | [3] 106 % of control | [4] 95 % of control

c1ccc(-c2cc(-c3ccccc3)c(-c3ccccc3)c(-c3ccccc3)c2)cc1
inactive: dose: 50.0 mg/kg/injection, schedule: Q01DX001 (ip), vehicle: saline 100 % of control | [8] 100 % of control | [9] 100 % of control | [10] 100 % of control

Nc1nccc2n[nH]nc12
inactive: [11] 100 % of control | [5] 103 % of control | [12] 92 % of control | [6] 101 % of control | dose: 400.0 mg/kg/injection, schedule: Q01DX001 (ip), vehicle: Klucel (hydroxypropylcellulose) (HPC) 97 % of control | [7] 101 % of control

CC(=O)Nc1ccc(S(=O)(=O)NC2CCCCC2)cc1
inactive: dose: 50.0 mg/kg/injection, schedule: Q01DX001 (ip), vehicle: Klucel (hydroxypropylcellulose) (HPC) 94 % of control | [11] 97 % of control | [12] 100 % of control

O=C(O)C(O)C(O)C(=O)O (stereo unspecified)
inactive: dose: 100.0 mg/kg/injection, schedule: Q01DX009 (ip), vehicle: saline 106 % of control | dose: 200.0 mg/kg/injection, schedule: Q01DX009 (ip), vehicle: saline 104 % of control | dose: 400.0 mg/kg/injection, schedule: Q01DX009 (ip), vehicle: saline 102 % of control

COC(=O)c1ccccc1N=NN(C)CC(C)C
inactive: dose: 50.0 mg/kg/injection, schedule: Q01DX009 (ip), vehicle: saline with Tween-80 110 % of control | dose: 50.0 mg/kg/injection, schedule: Q04DX003 (ip), vehicle: saline with Tween-80 103 % of control | dose: 100.0 mg/kg/injection, schedule: Q01DX009 (ip), vehicle: saline with Tween-80 121 % of control | [1] 114 % of control

O/N=C/c1cnccn1
inactive: [8] 105 % of control | [9] 105 % of control

COc1ccc2c(c1)CC[C@@H]1[C@@H]2CC[C@@]2(C)[C@H]1CC[C@@]2(O)C(F)=C(F)F
inactive: dose: 38.0 mg/kg/injection, schedule: Q01DX015 (sc), vehicle: steriod suspending solution 96 % of control | dose: 50.0 mg/kg/injection, schedule: Q01DX009 (ip), vehicle: Klucel (hydroxypropylcellulose) (HPC) 116 % of control | dose: 75.0 mg/kg/injection, schedule: Q01DX015 (sc), vehicle: steriod suspending solution 88 % of control | dose: 100.0 mg/kg/injection, schedule: Q01DX001 (sc), vehicle: steriod suspending solution 92 % of control | [13] 107 % of control | dose: 150.0 mg/kg/injection, schedule: Q01DX015 (sc), vehicle: steriod suspending solution 94 % of control | dose: 200.0 mg/kg/injection, schedule: Q01DX001 (sc), vehicle: steriod suspending solution 100 % of control | [14] 100 % of control | dose: 300.0 mg/kg/injection, schedule: Q01DX009 (ip), vehicle: Klucel (hydroxypropylcellulose) (HPC) 104 % of control | dose: 300.0 mg/kg/injection, schedule: Q01DX015 (sc), vehicle: steriod suspending solution 94 % of control | dose: 400.0 mg/kg/injection, schedule: Q01DX001 (sc), vehicle: steriod suspending solution 97 % of control | dose: 600.0 mg/kg/injection, schedule: Q01DX015 (sc), vehicle: steriod suspending solution 94 % of control

CCCCCCCCCCCCCCCCS(=O)(=O)c1ccc(S(=O)(=O)CS(C)(=O)=O)cc1[N+](=O)[O-]
inactive: dose: 100.0 mg/kg/injection, schedule: Q01DX001 (ip), vehicle: other 98 % of control | dose: 200.0 mg/kg/injection, schedule: Q01DX001 (ip), vehicle: other 91 % of control

Cc1ccc(Cl)cc1NC(=O)C(Br)C(Br)c1ccccc1 (stereo unspecified)
inactive: [13] 100 % of control | [14] 96 % of control | dose: 400.0 mg/kg/injection, schedule: Q01DX009 (ip), vehicle: Klucel (hydroxypropylcellulose) (HPC) 104 % of control

Nc1ccccc1N/N=C/c1ccccc1
inactive: [8] 101 % of control | [9] 101 % of control | [10] 94 % of control

O=C(COc1ccc(Cl)cc1Cl)Nc1cc(Cl)ccc1Cl
inactive: dose: 100.0 mg/kg/injection, schedule: Q04DX002 (ip), vehicle: gum acacia 95 % of control | dose: 200.0 mg/kg/injection, schedule: Q04DX002 (ip), vehicle: gum acacia 95 % of control | dose: 400.0 mg/kg/injection, schedule: Q04DX002 (ip), vehicle: gum acacia 100 % of control
